#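 Five concentrations, 48 hours, 96-well plates. GI50 = concentration required for 50% inhibition of growth.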 Active and inactive are the calls of the source. Cut-off read from the data, not from the text of the source: active = GI50 up to about 1.1 µM and inactive = higher.
# Tests used:
# Assay in all cases: inhibition of tumour cell growth, NCI panel, 48 h
# [1] = tested on: COLO 205
# [2] = tested on: SR
# [3] = tested on: SNB-75
# [4] = tested on: HCC 2998
# [5] = tested on: NCI/ADR-RES
# [6] = tested on: UO-31
# [7] = tested on: ACHN
# [8] = tested on: IGROV-1
# [9] = tested on: HOP-92
# [10] = tested on: CCRF-CEM
# [11] = tested on: LOX IMVI
# [12] = tested on: MOLT-4
# [13] = tested on: NCI-H23
# [14] = tested on: PC-3
# [15] = tested on: OVCAR-8
# [16] = tested on: DU-145
# [17] = tested on: UACC-62
# [18] = tested on: HCT-116
# [19] = tested on: 786-0
# [20] = tested on: A549
# [21] = tested on: OVCAR-5
# [22] = tested on: OVCAR-3
# [23] = tested on: EKVX
# [24] = tested on: SNB-19
# [25] = tested on: T47D
# [26] = tested on: U-251
# [27] = tested on: SW-620
# [28] = tested on: K562
# [29] = tested on: HL-60
# [30] = tested on: MDA-MB-435
# [31] = tested on: A498
# [32] = tested on: HOP-62
# [33] = tested on: MCF7
# [34] = tested on: SK-MEL-2
# [35] = tested on: SN12C
# [36] = tested on: RPMI-8226
# [37] = tested on: SK-OV-3
# [38] = tested on: NCI-H460
# [39] = tested on: SK-MEL-5
# [40] = tested on: KM12
# [41] = tested on: SF-295
# [42] = tested on: SF-539
# [43] = tested on: M14
# [44] = tested on: NCI-H226
# [45] = tested on: BT-549
# [46] = tested on: UACC-257
# [47] = tested on: CAKI-1
# [48] = tested on: SK-MEL-28
# [49] = tested on: HCT-15
# [50] = tested on: MDA-N
# [51] = tested on: TK-10
# [52] = tested on: NCI-H522
# [53] = tested on: HT-29
# [54] = tested on: MDA-MB-231
# [55] = tested on: OVCAR-4
# [56] = tested on: RXF 393
# [57] = tested on: Hs-578T
# [58] = tested on: SF-268
# [59] = tested on: Malme-3M
compound,measurement,setting,value
N#Cc1c(N2CCOCC2)ncn(-c2ccc(Cl)cc2)c1=O,GI50,[1],> 100 µM (inactive)
same,GI50,[2],> 100 µM (inactive)
same,GI50,[3],> 100 µM (inactive)
same,GI50,[4],> 100 µM (inactive)
same,GI50,[5],> 100 µM (inactive)
same,GI50,[6],> 100 µM (inactive)
same,GI50,[7],> 100 µM (inactive)
same,GI50,[8],> 100 µM (inactive)
same,GI50,[9],> 100 µM (inactive)
same,GI50,[10],> 100 µM (inactive)
same,GI50,[11],> 100 µM (inactive)
same,GI50,[12],> 100 µM (inactive)
same,GI50,[13],> 100 µM (inactive)
same,GI50,[14],> 100 µM (inactive)
same,GI50,[15],> 100 µM (inactive)
same,GI50,[16],> 100 µM (inactive)
same,GI50,[17],> 100 µM (inactive)
same,GI50,[18],> 100 µM (inactive)
same,GI50,[19],> 100 µM (inactive)
same,GI50,[20],> 100 µM (inactive)
same,GI50,[21],> 100 µM (inactive)
same,GI50,[22],> 100 µM (inactive)
same,GI50,[23],> 100 µM (inactive)
same,GI50,[24],> 100 µM (inactive)
same,GI50,[25],> 100 µM (inactive)
same,GI50,[26],> 100 µM (inactive)
same,GI50,[27],> 100 µM (inactive)
same,GI50,[28],> 100 µM (inactive)
same,GI50,[29],18.1 µM (inactive)
same,GI50,[30],> 100 µM (inactive)
same,GI50,[31],> 100 µM (inactive)
same,GI50,[32],> 100 µM (inactive)
same,GI50,[33],> 100 µM (inactive)
same,GI50,[34],> 100 µM (inactive)
same,GI50,[35],> 100 µM (inactive)
same,GI50,[36],> 100 µM (inactive)
same,GI50,[37],> 100 µM (inactive)
same,GI50,[38],> 100 µM (inactive)
same,GI50,[39],> 100 µM (inactive)
same,GI50,[40],> 100 µM (inactive)
same,GI50,[41],> 100 µM (inactive)
same,GI50,[42],> 100 µM (inactive)
same,GI50,[43],> 100 µM (inactive)
same,GI50,[44],> 100 µM (inactive)
same,GI50,[45],> 100 µM (inactive)
same,GI50,[46],> 100 µM (inactive)
same,GI50,[47],> 100 µM (inactive)
same,GI50,[48],> 100 µM (inactive)
same,GI50,[49],> 100 µM
same,GI50,[50],> 100 µM (inactive)
COc1ccc(/C(Cl)=C(\C#N)c2ccc(OC)c(OC)c2)cc1OC,GI50,[1],44.5 µM (inactive)
same,GI50,[51],> 100 µM (inactive)
same,GI50,[2],40.2 µM (inactive)
same,GI50,[4],> 100 µM (inactive)
same,GI50,[6],59 µM (inactive)
same,GI50,[52],59.8 µM (inactive)
same,GI50,[7],93.8 µM (inactive)
same,GI50,[8],> 100 µM (inactive)
same,GI50,[9],17.8 µM (inactive)
same,GI50,[10],> 10 µM (inactive)
same,GI50,[11],> 100 µM (inactive)
same,GI50,[12],78.9 µM (inactive)
same,GI50,[13],80.2 µM (inactive)
same,GI50,[14],79.1 µM (inactive)
same,GI50,[53],38.6 µM (inactive)
same,GI50,[54],35.6 µM (inactive)
same,GI50,[16],> 100 µM (inactive)
same,GI50,[17],42.3 µM (inactive)
same,GI50,[18],60.1 µM (inactive)
same,GI50,[19],> 100 µM (inactive)
same,GI50,[20],> 100 µM (inactive)
same,GI50,[21],> 100 µM (inactive)
same,GI50,[22],63.1 µM (inactive)
same,GI50,[23],21.3 µM (inactive)
same,GI50,[55],81.5 µM (inactive)
same,GI50,[24],> 100 µM (inactive)
same,GI50,[25],34.4 µM (inactive)
same,GI50,[26],40.1 µM (inactive)
same,GI50,[27],> 100 µM (inactive)
same,GI50,[28],48.9 µM (inactive)
same,GI50,[29],15.3 µM (inactive)
same,GI50,[30],87.7 µM (inactive)
same,GI50,[31],> 100 µM (inactive)
same,GI50,[32],43.7 µM (inactive)
same,GI50,[33],59 µM (inactive)
same,GI50,[34],96.2 µM (inactive)
same,GI50,[35],> 100 µM (inactive)
same,GI50,[56],38.6 µM (inactive)
same,GI50,[36],15 µM (inactive)
same,GI50,[38],36.8 µM (inactive)
same,GI50,[39],46.8 µM (inactive)
same,GI50,[41],61.5 µM (inactive)
same,GI50,[42],> 100 µM (inactive)
same,GI50,[43],> 100 µM (inactive)
same,GI50,[44],77.4 µM (inactive)
same,GI50,[45],57.7 µM (inactive)
same,GI50,[46],> 100 µM (inactive)
same,GI50,[47],54.2 µM (inactive)
same,GI50,[49],44.3 µM
same,GI50,[50],> 100 µM (inactive)
CN(C)c1ccc(/C=c2/c3ccccc3n3c2cc(NC(=O)NCCC[N+](C)(C)C)[n+]3C)cc1,GI50,[1],> 100 µM (inactive)
same,GI50,[51],> 100 µM (inactive)
same,GI50,[2],75.9 µM (inactive)
same,GI50,[57],> 100 µM (inactive)
same,GI50,[5],> 100 µM (inactive)
same,GI50,[6],> 100 µM (inactive)
same,GI50,[52],29.4 µM (inactive)
same,GI50,[7],> 100 µM (inactive)
same,GI50,[8],16.4 µM (inactive)
same,GI50,[9],30.6 µM (inactive)
same,GI50,[10],0.452 µM (active)
same,GI50,[11],61.2 µM (inactive)
same,GI50,[12],> 100 µM (inactive)
same,GI50,[13],> 100 µM (inactive)
same,GI50,[14],> 100 µM (inactive)
same,GI50,[53],> 100 µM (inactive)
same,GI50,[54],> 100 µM (inactive)
same,GI50,[15],38.9 µM (inactive)
same,GI50,[16],> 100 µM (inactive)
same,GI50,[17],> 100 µM (inactive)
same,GI50,[18],> 100 µM (inactive)
same,GI50,[19],> 100 µM (inactive)
same,GI50,[20],> 100 µM (inactive)
same,GI50,[21],> 100 µM (inactive)
same,GI50,[22],45.4 µM (inactive)
same,GI50,[23],> 100 µM (inactive)
same,GI50,[55],22.2 µM (inactive)
same,GI50,[24],64.1 µM (inactive)
same,GI50,[25],6.41 µM (inactive)
same,GI50,[26],50 µM (inactive)
same,GI50,[27],> 100 µM (inactive)
same,GI50,[28],40.6 µM (inactive)
same,GI50,[58],> 100 µM (inactive)
same,GI50,[29],42.9 µM (inactive)
same,GI50,[30],> 100 µM (inactive)
same,GI50,[31],> 100 µM (inactive)
same,GI50,[32],> 100 µM (inactive)
same,GI50,[33],46.6 µM (inactive)
same,GI50,[34],> 100 µM (inactive)
same,GI50,[35],0.432 µM (active)
same,GI50,[56],> 100 µM (inactive)
same,GI50,[36],22.9 µM (inactive)
same,GI50,[37],> 100 µM (inactive)
same,GI50,[38],> 100 µM (inactive)
same,GI50,[39],47.6 µM (inactive)
same,GI50,[59],> 100 µM (inactive)
same,GI50,[40],> 100 µM (inactive)
same,GI50,[41],53.7 µM (inactive)
same,GI50,[42],53.1 µM (inactive)
same,GI50,[43],72.8 µM (inactive)
same,GI50,[45],> 100 µM (inactive)
same,GI50,[46],> 100 µM (inactive)
same,GI50,[47],> 100 µM (inactive)
same,GI50,[48],> 100 µM (inactive)
same,GI50,[49],> 100 µM

# From ChEMBL document CHEMBL1201862, “PubChem BioAssay data set” (2004)
